Reference: PubChem BioAssay (NCI)
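Briefly, cells in 96-well plates were exposed to five compound concentrations for 48 h, and endpoints were estimated by linear interpolation. Abbreviation: GI50, concentration required for 50% inhibition of growth. TGI is the concentration that stops growth completely.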

What was measured:
Experiment in all cases: DTP human tumour cell line panel, 48 h; in the data active = GI50 below about 0.43 µM; inactive = the rest
A549 NSCLC = tested on: A549 NSCLC
HCT-116 colon = tested on: HCT-116 colon
HL-60(TB) leukemia = tested on: HL-60(TB) leukemia
M14 melanoma = tested on: M14 melanoma
NCI-H226 lung = tested on: NCI-H226 lung
NCI-H522 lung = tested on: NCI-H522 lung
SW-620 colon = tested on: SW-620 colon
TK-10 renal = tested on: TK-10 renal
U251 CNS = tested on: U251 CNS
UACC-257 melanoma = tested on: UACC-257 melanoma

O=C(O)C1=NNC(C(=O)O)=NN1
> 100 µM: TGI (A549 NSCLC) | TGI (HCT-116 colon) | TGI (HL-60(TB) leukemia) | TGI (M14 melanoma) | TGI (NCI-H226 lung) | TGI (NCI-H522 lung) | TGI (SW-620 colon) | TGI (TK-10 renal) | TGI (U251 CNS) | TGI (UACC-257 melanoma)

CC(CO)(CO)Nc1ncnc2ccccc12
> 100 µM: TGI (A549 NSCLC) | TGI (HCT-116 colon) | TGI (M14 melanoma) | TGI (NCI-H226 lung) | TGI (NCI-H522 lung) | TGI (SW-620 colon) | TGI (TK-10 renal) | TGI (U251 CNS) | TGI (UACC-257 melanoma)

COc1cc(C)c2c(=O)c3c(oc2c1)C(=O)c1c(O)c(OC)cc(O)c1C3=O
0.524 µM: TGI (NCI-H226 lung)
7.84 µM: TGI (A549 NSCLC)
3.1 µM: TGI (UACC-257 melanoma)
9.17 µM: TGI (NCI-H522 lung)
3.42 µM: TGI (HCT-116 colon)
10.7 µM: TGI (SW-620 colon)
2.53 µM: TGI (U251 CNS)
2.57 µM: TGI (HL-60(TB) leukemia)

c1ccc2sc(SCN(C3CCCCC3)C3CCCCC3)nc2c1
> 100 µM: TGI (A549 NSCLC) | TGI (M14 melanoma) | TGI (NCI-H226 lung) | TGI (NCI-H522 lung) | TGI (SW-620 colon) | TGI (TK-10 renal) | TGI (U251 CNS) | TGI (UACC-257 melanoma)

COc1cc2c(cc1Oc1ccc(OC)c3c1CC1c4c(cc(OC)c(OC)c4-3)CCN1C)CC1c3c(cc(OC)c(OC)c3-2)CCN1C (centres undefined)
25.9 µM: TGI (A549 NSCLC)
2.72 µM: TGI (HL-60(TB) leukemia)
5.73 µM: TGI (SW-620 colon)
5.01 µM: TGI (NCI-H226 lung)
4.19 µM: TGI (U251 CNS)
3.21 µM: TGI (UACC-257 melanoma)
4.66 µM: TGI (NCI-H522 lung)
4.49 µM: TGI (HCT-116 colon)

O=c1cc(O)c2ccccc2o1
> 100 µM: TGI (A549 NSCLC) | TGI (HCT-116 colon) | TGI (HL-60(TB) leukemia) | TGI (M14 melanoma) | TGI (NCI-H226 lung) | TGI (NCI-H522 lung) | TGI (SW-620 colon) | TGI (TK-10 renal) | TGI (U251 CNS) | TGI (UACC-257 melanoma)

Fc1ccc(-c2nnc3sc(COc4ccccc4Cl)nn23)cc1Cl
57.1 µM: TGI (NCI-H226 lung)
inactive: GI50 (A549 NSCLC) 41.1 µM | GI50 (HCT-116 colon) 29.1 µM | GI50 (HL-60(TB) leukemia) 30.4 µM | GI50 (M14 melanoma) 34.9 µM | GI50 (NCI-H226 lung) 22.8 µM | GI50 (NCI-H522 lung) 18 µM | GI50 (SW-620 colon) 30.2 µM | GI50 (TK-10 renal) > 100 µM | GI50 (U251 CNS) 24.9 µM | GI50 (UACC-257 melanoma) 46.2 µM
36.3 µM: TGI (NCI-H522 lung)
67.2 µM: TGI (U251 CNS)
> 100 µM: TGI (A549 NSCLC) | TGI (HCT-116 colon) | TGI (HL-60(TB) leukemia) | TGI (M14 melanoma) | TGI (TK-10 renal) | TGI (UACC-257 melanoma)
74.5 µM: TGI (SW-620 colon)

COc1c(Cl)cc(S(=O)O)cc1Cl
> 100 µM: TGI (HCT-116 colon) | TGI (HL-60(TB) leukemia) | TGI (M14 melanoma) | TGI (NCI-H522 lung) | TGI (TK-10 renal) | TGI (U251 CNS) | TGI (UACC-257 melanoma)

Cn1c(Sc2ccc(-c3cccnc3)n2C)ccc1-c1cccnc1
37 µM: TGI (M14 melanoma)
23.6 µM: TGI (SW-620 colon)
32.4 µM: TGI (TK-10 renal)
26.9 µM: TGI (U251 CNS)
29.1 µM: TGI (UACC-257 melanoma)
80.9 µM: TGI (A549 NSCLC)
5.78 µM: TGI (HL-60(TB) leukemia)
23.9 µM: TGI (NCI-H522 lung)
25.7 µM: TGI (HCT-116 colon)
51.1 µM: TGI (NCI-H226 lung)

Nc1nnc(N)n1NC(=O)C(=O)Nc1ccc([N+](=O)[O-])cc1
> 100 µM: TGI (A549 NSCLC) | TGI (HCT-116 colon) | TGI (HL-60(TB) leukemia) | TGI (NCI-H226 lung) | TGI (NCI-H522 lung) | TGI (SW-620 colon) | TGI (TK-10 renal) | TGI (U251 CNS) | TGI (UACC-257 melanoma)

CCOC(=O)NC
> 100 µM: TGI (A549 NSCLC) | TGI (HCT-116 colon) | TGI (HL-60(TB) leukemia) | TGI (M14 melanoma) | TGI (SW-620 colon) | TGI (TK-10 renal) | TGI (U251 CNS) | TGI (UACC-257 melanoma)

NC(=O)Nc1cc(O)ccc1N=Nc1ccc(S(=O)(=O)Nc2ccccn2)cc1
> 100 µM: TGI (A549 NSCLC) | TGI (HCT-116 colon) | TGI (HL-60(TB) leukemia) | TGI (M14 melanoma) | TGI (NCI-H522 lung) | TGI (SW-620 colon) | TGI (TK-10 renal) | TGI (U251 CNS) | TGI (UACC-257 melanoma)

CC1(O)CC23CC1CCC2(C)C12CCCC(C)(C(=O)O1)C2CC3O (centres undefined)
> 100 µM: TGI (A549 NSCLC) | TGI (HCT-116 colon) | TGI (M14 melanoma) | TGI (NCI-H226 lung) | TGI (NCI-H522 lung) | TGI (SW-620 colon) | TGI (TK-10 renal) | TGI (U251 CNS) | TGI (UACC-257 melanoma)

Cc1cc(=O)oc2c1cc(OCC(=O)OCCN1CCCCC1)c1occ(C)c12
> 100 µM: TGI (A549 NSCLC) | TGI (HCT-116 colon) | TGI (HL-60(TB) leukemia) | TGI (M14 melanoma) | TGI (NCI-H226 lung) | TGI (SW-620 colon) | TGI (TK-10 renal) | TGI (U251 CNS) | TGI (UACC-257 melanoma)

CC(C)=CCC[C@](C)(O[C@@H]1O[C@H](CO)[C@@H](O)[C@H](O)[C@H]1O)[C@H]1CC[C@]2(C)[C@@H]1[C@H](O)C[C@@H]1[C@@]3(C)CC[C@H](O)C(C)(C)[C@@H]3[C@@H](O[C@@H]3O[C@H](CO)[C@@H](O)[C@H](O)[C@H]3O)C[C@]12C
> 100 µM: TGI (A549 NSCLC) | TGI (HCT-116 colon) | TGI (HL-60(TB) leukemia) | TGI (M14 melanoma) | TGI (NCI-H226 lung) | TGI (NCI-H522 lung) | TGI (SW-620 colon) | TGI (TK-10 renal) | TGI (U251 CNS) | TGI (UACC-257 melanoma)
